Patent publication US20240424111A1, “Degrader Compounds and Uses Thereof” (CALICO LIFE SCIENCES LLC, priority 2021, published 2024)

Assays:
PTPN2 [1] = molecular target: T1, PTPN2 (Mus musculus, UniProt Q06180); assay: HiBiT PTPN2 degradation in B16F10.4 cells, 24 hours; format: cell-based
T1 construct: HiBiT; host or cells: B16F10.4
T1 sequence (Q06180 1-406): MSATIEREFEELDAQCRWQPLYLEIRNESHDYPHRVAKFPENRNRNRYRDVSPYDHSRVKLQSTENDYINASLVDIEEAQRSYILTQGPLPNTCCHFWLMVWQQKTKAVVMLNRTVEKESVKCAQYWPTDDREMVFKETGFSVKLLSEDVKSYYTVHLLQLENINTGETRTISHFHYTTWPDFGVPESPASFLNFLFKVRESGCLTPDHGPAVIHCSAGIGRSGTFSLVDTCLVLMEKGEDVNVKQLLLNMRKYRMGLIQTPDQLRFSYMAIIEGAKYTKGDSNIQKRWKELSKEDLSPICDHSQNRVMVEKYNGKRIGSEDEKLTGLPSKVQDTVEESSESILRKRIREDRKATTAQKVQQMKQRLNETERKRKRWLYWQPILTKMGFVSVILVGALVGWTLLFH
Procedure, shortened: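 PTPN2 degradation was measured via luminescence from the Nano-Glo® HiBiT Lytic Assay kit. Compounds were dispensed into 384-well plates at an 11-point half-log titration in duplicate, starting at 10 μM. Cells were added at 5000 per well and held at 37° C. with 5% CO2 for 24 hours. Untreated cells were the negative control and cells without lytic reagent the positive control. Lytic reagents were then added and luminescence read on an EnVision™ Multilabel Reader.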

PTPN2 [2] = molecular target: T2, PTPN2 (Homo sapiens, UniProt P17706); assay: HiBiT PTPN2 degradation in 293T.109 (HiBiT-PTPN2) cells, 24 hours; format: cell-based; conditions: 293T.109 cells
T2 construct: expressed in transfected cells; host or cells: 293T.109 (HiBiT-PTPN2), derived from 293T WT (ATCC)
T2 sequence (P17706 1-415): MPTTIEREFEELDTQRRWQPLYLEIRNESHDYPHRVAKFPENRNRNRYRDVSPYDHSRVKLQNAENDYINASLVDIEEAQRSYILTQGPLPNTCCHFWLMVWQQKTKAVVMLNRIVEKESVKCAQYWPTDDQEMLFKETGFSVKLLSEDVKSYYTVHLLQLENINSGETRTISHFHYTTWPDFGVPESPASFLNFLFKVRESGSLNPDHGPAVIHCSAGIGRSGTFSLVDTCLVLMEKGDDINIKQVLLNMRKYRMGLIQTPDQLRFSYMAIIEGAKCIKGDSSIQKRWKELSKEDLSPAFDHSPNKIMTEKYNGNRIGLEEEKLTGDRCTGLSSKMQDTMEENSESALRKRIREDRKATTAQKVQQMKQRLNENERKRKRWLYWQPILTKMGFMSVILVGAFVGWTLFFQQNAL
Procedure, shortened: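 293T cells stably expressing N-terminal HiBiT-tagged PTPN2 were treated for 24 h at 37 °C with compound in an 11-point half-log series from 10 μM top concentration, in duplicate. Remaining HiBiT-PTPN2 was measured by lytic luminescence, with untreated cells as the negative control and wells without lytic reagent as the positive control.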

Cn1c(=O)n(C2CCC(=O)NC2=O)c2ccc(C3CCN(CC(=O)Nc4ccc5c(F)c(N6CC(=O)NS6(=O)=O)c(O)cc5c4)CC3F)cc21 (centres unmarked) [Degrader 36]
DC50 (PTPN2 [1]): < 50 nM
DC50 (PTPN2 [2]): < 50 nM

Cn1c(=O)n(C2CCC(=O)NC2=O)c2ccc([C@H]3CCN(CC(=O)Nc4ccc5c(F)c(N6CC(=O)NS6(=O)=O)c(O)cc5c4)C3)cc21 (single isomer, unassigned) [Degrader 123]
DC50 (PTPN2 [1]): 150 to 500 nM
DC50 (PTPN2 [2]): 50 to 150 nM

Cn1c(=O)n(C2CCC(=O)NC2=O)c2ccc(Nc3ccn(CC(=O)Nc4ccc5c(F)c(N6CC(=O)NS6(=O)=O)c(O)cc5c4)n3)cc21 (centres unmarked) [Degrader 107]
DC50 (PTPN2 [1]): 50 to 150 nM
DC50 (PTPN2 [2]): 50 to 150 nM

Cn1c(=O)n(C2CCC(=O)NC2=O)c2ccc(-c3ccc(NCC4CC4C(=O)Nc4ccc5c(F)c(N6CC(=O)NS6(=O)=O)c(O)cc5c4)cc3)cc21 (centres unmarked) [Degrader 108]
DC50 (PTPN2 [1]): 50 to 150 nM
DC50 (PTPN2 [2]): 50 to 150 nM

Cn1nc(C2CCC(=O)NC2=O)c2ccc(Oc3ccc(CC(=O)Nc4ccc5c(F)c(N6CC(=O)NS6(=O)=O)c(O)cc5c4)cc3)cc21 (centres unmarked) [Degrader 39]
DC50 (PTPN2 [1]): 150 to 500 nM
DC50 (PTPN2 [2]): 50 to 150 nM

Cn1c(=O)n(C2CCC(=O)NC2=O)c2ccc([C@H]3CCN(CC(=O)Nc4ccc5c(F)c(N6CC(=O)NS6(=O)=O)c(O)cc5c4)C[C@@H]3O)cc21 (some centres unmarked) [Degrader 112]
DC50 (PTPN2 [1]): 50 to 150 nM
DC50 (PTPN2 [2]): < 50 nM

Cn1c(=O)n([C@@H]2CCC(=O)NC2=O)c2ccc(-c3ccc(CC(=O)Nc4ccc5c(F)c(N6CC(=O)NS6(=O)=O)c(O)cc5c4)cc3)cc21 [Degrader 26]
DC50 (PTPN2 [1]): < 50 nM
DC50 (PTPN2 [2]): 50 to 150 nM

Cc1nn(C2CCC(=O)NC2=O)c2ccc(N3CCC(CC(=O)Nc4ccc5c(F)c(N6CC(=O)NS6(=O)=O)c(O)cc5c4)CC3)cc12 (centres unmarked) [Degrader 101]
DC50 (PTPN2 [1]): ≥ 500 nM
DC50 (PTPN2 [2]): ≥ 500 nM

O=C1CCC(N2C(=O)c3cccc4c(-c5ccc(CC(=O)Nc6ccc7c(F)c(N8CC(=O)NS8(=O)=O)c(O)cc7c6)cc5)ccc2c34)C(=O)N1 (centres unmarked) [Degrader 155]
DC50 (PTPN2 [1]): 50 to 150 nM
DC50 (PTPN2 [2]): 150 to 500 nM

Cn1c(=O)n(C2CCC(=O)NC2=O)c2cc(F)c(N3CCN(CC(=O)Nc4ccc5c(F)c(N6CC(=O)NS6(=O)=O)c(O)cc5c4)CC3)cc21 (centres unmarked) [Degrader 55]
DC50 (PTPN2 [1]): 150 to 500 nM
DC50 (PTPN2 [2]): 50 to 150 nM

Cc1cc(CC(=O)Nc2ccc3c(F)c(N4CC(=O)NS4(=O)=O)c(O)cc3c2)ccc1Oc1ccc2c(c1)n(C)c(=O)n2C1CCC(=O)NC1=O (centres unmarked) [Degrader 81]
DC50 (PTPN2 [1]): 50 to 150 nM
DC50 (PTPN2 [2]): 50 to 150 nM

Cn1c(=O)n([C@H]2CCC(=O)NC2=O)c2ccc(-c3ccc(CC(=O)Nc4ccc5c(F)c(N6CC(=O)NS6(=O)=O)c(O)cc5c4)cc3)cc21 [Degrader 27]
DC50 (PTPN2 [1]): < 50 nM
DC50 (PTPN2 [2]): 50 to 150 nM

Cn1c(=O)n(C2CCC(=O)NC2=O)c2ccc(C3CCN(CC4CC4C(=O)N4CC[C@H](c5ccc6cc(O)c(N7CC(=O)NS7(=O)=O)c(F)c6c5)C4)CC3)cc21 (some centres unmarked) [Degrader 17]
DC50 (PTPN2 [1]): 150 to 500 nM
DC50 (PTPN2 [2]): 50 to 150 nM

Cn1c(=O)n(C2CCC(=O)NC2=O)c2ccc(N3CCC(C(C)(C)C(=O)Nc4ccc5c(F)c(N6CC(=O)NS6(=O)=O)c(O)cc5c4)CC3)cc21 (centres unmarked) [Degrader 118]
DC50 (PTPN2 [1]): 150 to 500 nM
DC50 (PTPN2 [2]): ≥ 500 nM

C[C@H]1CC(c2ccc3c(c2)n(C)c(=O)n3C2CCC(=O)NC2=O)CCN1CC(=O)Nc1ccc2c(F)c(N3CC(=O)NS3(=O)=O)c(O)cc2c1 (some centres unmarked) [Degrader 121]
DC50 (PTPN2 [1]): 50 to 150 nM
DC50 (PTPN2 [2]): < 50 nM

Cn1c(=O)n(C2CCC(=O)NC2=O)c2ccc([C@H]3CCN(CC(=O)Nc4ccc5c(F)c(N6CC(=O)NS6(=O)=O)c(O)cc5c4)C[C@@H]3F)cc21 (some centres unmarked) [Degrader 37]
DC50 (PTPN2 [1]): 50 to 150 nM
DC50 (PTPN2 [2]): 50 to 150 nM

Cc1cc(C(C)C(=O)Nc2ccc3c(F)c(N4CC(=O)NS4(=O)=O)c(O)cc3c2)ccc1Nc1ccc2c(c1)n(C)c(=O)n2C1CCC(=O)NC1=O (centres unmarked) [Degrader 94]
DC50 (PTPN2 [1]): 50 to 150 nM
DC50 (PTPN2 [2]): 150 to 500 nM

Cn1c(=O)n(C2CCC(=O)NC2=O)c2ccc(-c3cccc(CC(=O)Nc4ccc5c(F)c(N6CC(=O)NS6(=O)=O)c(O)cc5c4)c3)cc21 (centres unmarked) [Degrader 77]
DC50 (PTPN2 [1]): ≥ 500 nM
DC50 (PTPN2 [2]): 150 to 500 nM

Cn1c(=O)n(C2CCC(=O)NC2=O)c2ccc([C@@H]3CCCN(CC(=O)Nc4ccc5c(F)c(N6CC(=O)NS6(=O)=O)c(O)cc5c4)C3)cc21 (some centres unmarked) [Degrader 152]
DC50 (PTPN2 [1]): 150 to 500 nM
DC50 (PTPN2 [2]): 50 to 150 nM
